Measurements as given in patent US7504406B2, “Derivatives of pyrido[2,3-d]pyrimidine, the preparation thereof, and the therapeutic application of the same” (Sanofi-Aventis, priority 2005, dated 2009).

Legend:
Format in all cases: cell-based
KG-1a line = assay: MTS cell proliferation and viability test, KG-1a line; conditions: Homo sapiens, KG-1a leukaemia line, 72 hours of incubation, read-out: IC50 (50% loss of cell proliferation and cell viability)
Description: […]
(§1) The cell proliferation and viability were determined in a test using 3-(4,5-dimethylthiazol-2-yl)-5-(3-carboxymethoxyphenyl)-2-(4-sulphophenyl)-2H-tetrazolium (MTS) according to Fujishita T. et al., Oncology, 2003, 64 (4), 399-406. In this test, the mitochondrial ability of the live cells to convert MTS to a coloured compound is measured after 72 hours of incubation of a compound of formula (I) according to the invention. […]

K-562 line = assay: MTS cell proliferation and viability test, K-562 line; conditions: Homo sapiens, K562, K-562 leukaemia line, 72 hours of incubation, read-out: IC50 (50% loss of cell proliferation and cell viability)
Description: The compounds of formula (I) according to the present invention were tested in vitro on a panel of tumour lines of human origin, originating: • from breast cancer: MDA-MB231 (American Type culture collection, Rockville, Md., USA, ATCC-HTB26), MDA-A1 or MDA-ADR (called multi-drug resistant MDR line, and described by E. Collomb et al., in Cytometry, 12(1):15-25, 1991), and MCF7 (ATCC-HTB22), • from prostate cancer: DU145 (ATCC-HTB81) and PC3 (ATCC-CRL1435), • from colon cancer: HCT116 (ATCC-CCL247) and HCT15 (ATCC-CCL225), • from lung cancer: H460 (described by Carmichael in Cancer Research 47 (4):936-942, 1987 and provided by the National Cancer Institute, Frederick Cancer Research and Development Center, Frederick, Md., USA), • from glioblastoma: SF268 (described by Westphal in Biochemical & Biophysical Research Communications 132 (1): 284-289, 1985 and provided by the National Cancer Institute, Frederick Cancer Research and Development Center, Frederick, Md., USA), • from leukaemia: CMLT1 (described by Kuriyama et al. in Blood, 74: 1989, 1381-1387, by Soda et al. in British Journal of Haematology, 59: 1985, 671-679 and by Drexler, in Leukemia Research, 18: 1994, 919-927 and provided by the company DSMZ (Deutsche Sammlung von Mikroorganismen und Zellkulturen GmbH) Mascheroder Weg 1b, 38124 Braunschweig, Germany), K-562 (described by Lozzio et al., J Natl Cancer Inst 50: 535 (1973), by Lozzio et al., Blood 45: 321 (1975), and provided by DSMZ No. ACC 10), KG-1a (described by Koeffler et al., Blood 56: 265 (1980), and provided by DSMZ No. ACC 421), and Kasumi-1 (described by Asou et al., Blood 77: 2031 (1991), and provided by DSMZ No. ACC 220).
The cell proliferation and viability were determined in a test using 3-(4,5-dimethylthiazol-2-yl)-5-(3-carboxymethoxyphenyl)-2-(4-sulphophenyl)-2H-tetrazolium (MTS) according to Fujishita T. et al., Oncology, 2003, 64 (4), 399-406. In this test, the mitochondrial ability of the live cells to convert MTS to a coloured compound is measured after 72 hours of incubation of a compound of formula (I) according to the invention. The concentrations of compound according to the invention which result in a 50% loss of cell proliferation and cell viability (IC50) are between 1 nM and 10 μM, depending on the tumor line and the compound tested. For example, compound No. 1 has an IC50 of 40 nM on the K-562 line, an IC50 of 50 nM on the KG-1a line and an IC50 of 40 nM on the Kasumi-1 line.

Kasumi-1 line = assay: MTS cell proliferation and viability test, Kasumi-1 line; conditions: Homo sapiens, Kasumi-1 leukaemia line, 72 hours of incubation, read-out: IC50 (50% loss of cell proliferation and cell viability)
Description: […]
as §1

SF268 = assay: MTS cell proliferation and viability test, SF268 line; conditions: Homo sapiens, SF-268, SF268 glioblastoma line, 72 hours of incubation, read-out: IC50 (50% loss of cell proliferation and cell viability)
Description: […]
as §1

CC(C)(C)NC(=O)Nc1nc2nc(Nc3ccc4nsnc4c3)ncc2cc1-c1c(Cl)cccc1Cl [Compound No. 1, N-[2-(2,1,3-benzothiadiazol-5-ylamino)-6-(2,6-dichlorophenyl)pyrido[2,3-d]pyrimidin-7-yl]-N′-(1,1-dimethylethyl)urea]
IC50 (KG-1a line): 0.05 µM
IC50 (K-562 line): 0.04 µM
IC50 (Kasumi-1 line): 0.04 µM

CCN(CC)Cc1cc2cc(Nc3ncc4cc(-c5c(Cl)cccc5Cl)c(NC(=O)NC(C)(C)C)nc4n3)ccc2o1 [Compound No. 5, N-[6-(2,6-dichlorophenyl)-2-[[2-[(diethylamino)methyl]-5-benzofuranyl]amino]pyrido[2,3-d]pyrimidin-7-yl]-N′-(1,1-dimethylethyl)urea]
IC50 (K-562 line): 0.005 µM

CC(C)(C)NC(=O)Nc1nc2nc(Nc3ccc4oc(CN)nc4c3)ncc2cc1-c1c(Cl)cccc1Cl [Compound No. 7, N-[2-[[2-(aminomethyl)-5-benzoxazolyl]amino]-6-(2,6-dichlorophenyl)pyrido[2,3-d]pyrimidin-7-yl]-N′-(1,1-dimethylethyl)urea]
IC50 (SF268): 0.043 µM

CC(C)(C)NC(=O)Nc1nc2nc(Nc3ccc4ncnn4c3)ncc2cc1-c1c(Cl)cccc1Cl [Compound No. 9, N-[6-(2,6-dichlorophenyl)-2-([1,2,4]triazolo[1,5-a]pyridin-6-ylamino)pyrido[2,3-d]pyrimidin-7-yl]-N′-(1,1-dimethylethyl)urea]
IC50 (K-562 line): 0.019 µM

CCNC(=O)Nc1nc2nc(Nc3ccc4nsnc4c3)ncc2cc1-c1c(Cl)cccc1Cl [Compound No. 13, N-[2-(2,1,3-benzothiadiazol-5-ylamino)-6-(2,6-dichlorophenyl)pyrido[2,3-d]pyrimidin-7-yl]-N′-ethylurea]
IC50 (K-562 line): 0.074 µM
